Assay results from patent publication USRE39591E1, “6-O-substituted ketolides having antibacterial activity” (Abbott Laboratories, priority 1996, dated 2007).
Values after ≈ are worked out from the molar mass of the structure shown.

Tested on: up to 32 different microorganisms
Test: in vitro antibacterial activity (MIC), agar dilution on Brain Heart Infusion (BHI) agar with Steers replicator
Format: cell-based
Conditions: unit assumed
Outline: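 Twelve plates carried successive aqueous dilutions of test compound in BHI agar; inocula were 1:100 dilutions (1:10 for slow growers such as Micrococcus, Streptococcus), incubated 35°-37° C for 20 to 24 hours. MIC was the lowest concentration giving no growth, slight haze, or sparse isolated colonies versus growth control.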

[1] = Candida albicans CCH 442 (code TT)
[2] = Enterococcus faecism ATCC 8043 (code II)
[3] = Escherichia coli DC-2 (code SS)
[4] = Escherichia coli JUHL (code QQ)
[5] = Haemophilis influenzae DILL AMP R (code WW)
[6] = Micrococcus luteus ATCC 4698 (code PP)
[7] = Mycobacterium smegmatis ATCC 114 (code UU)
[8] = Nocardia Asteroides ATCC9970 (code VV)
[9] = Staphylococcus aureus 1775 (code GG)
[10] = Staphylococcus aureus A5177 (code BB)
[11] = Staphylococcus aureus A-5278 (code CC)
[12] = Staphylococcus aureus ATCC 6538P (code AA)
[13] = Staphylococcus aureus CMX 553 (code FF)
[14] = Staphylococcus aureus CMX 642A (code DD)
[15] = Staphylococcus aureus NCTC10649M (code EE)
[16] = Staphylococcus epidermidis 3519 (code HH)
[17] = Streptococcus Pneumonia 5649 (code ZZA)
[18] = Streptococcus Pneumonia 5979 (code ZZ)
[19] = Streptococcus Pneumonia ATCC6303 (code XX)
[20] = Streptococcus Pneumonia GYR 1171 (code YY)
[21] = Streptococcus agalactiae CMX 508 (code KK)
[22] = Streptococcus bovis A-5169 (code JJ)
[23] = Streptococcus pyogenes 930 (code MM)
[24] = Streptococcus pyogenes EES61 (code LL)
[25] = Streptococcus pyogenes PIU 2548 (code NN)
[26] = Micrococcus luteus ATCC 9341 (code OO)

SMILES: CCC1OC(=O)C(C)C(=O)C(C)C(OC2OC(C)CC(N(C)C)C2O)C(C)(OCC=Cc2ccc3ncc(-c4ccccc4)cc3c2)CC(C)C(=O)C(C)C2NC(=O)OC12C (centres unmarked) [Example 273, Compound of Formula (IX): L is CO, T is NH2, R is —CH2CH═CH-(3-phenyl-6-quinolyl)]
- MIC (organism code AA): 0.2 µg/mL
- MIC (organism code BB): 0.2 µg/mL
- MIC (organism code CC): > 100 µg/mL
- MIC (organism code DD): 0.2 µg/mL
- MIC (organism code EE): 0.2 µg/mL
- MIC (organism code FF): 0.2 µg/mL
- MIC (organism code GG): > 100 µg/mL
- MIC (organism code HH): 0.2 µg/mL
- MIC (organism code II): 0.1 µg/mL
- MIC (organism code JJ): 0.02 µg/mL
- MIC (organism code KK): 0.02 µg/mL
- MIC (organism code LL): 0.05 µg/mL
- MIC (organism code MM): 12.5 µg/mL
- MIC (organism code NN): 0.39 µg/mL
- MIC (organism code OO): 0.05 µg/mL
- MIC (organism code PP): 0.39 µg/mL
- MIC (organism code QQ): > 100 µg/mL
- MIC (organism code RR): 0.78 µg/mL
- MIC (organism code SS): > 100 µg/mL
- MIC (organism code TT): > 100 µg/mL
- MIC (organism code UU): 0.78 µg/mL
- MIC (organism code VV): 0.39 µg/mL
- MIC (organism code WW): 8 µg/mL
- MIC (organism code XX): 0.03 µg/mL
- MIC (organism code YY): 0.03 µg/mL
- MIC (organism code ZZ): 16 µg/mL
- MIC (organism code ZZA): 0.5 µg/mL

SMILES: CCC1OC(=O)C(C)C(=O)C(C)C(OC2OC(C)CC(N(C)C)C2O)C(C)(OCC2CC2c2cnc3ccccc3c2)CC(C)C(=O)C(C)C2NC(=O)OC12C (centres unmarked) [Example 243, Compound of Formula (IX): L is CO, T is NH, R is —CH2(2-(3-quinolyl)cyclopropyl)]
- MIC (organism code AA): 0.05 µg/mL
- MIC (organism code BB): 0.05 µg/mL
- MIC (organism code CC): > 100 µg/mL
- MIC (organism code DD): 0.05 µg/mL
- MIC (organism code EE): 0.1 µg/mL
- MIC (organism code FF): 0.05 µg/mL
- MIC (organism code GG): > 100 µg/mL
- MIC (organism code HH): 0.1 µg/mL
- MIC (organism code II): 0.02 µg/mL
- MIC (organism code JJ): 0.02 µg/mL
- MIC (organism code KK): 0.02 µg/mL
- MIC (organism code LL): 0.02 µg/mL
- MIC (organism code MM): 6.2 µg/mL
- MIC (organism code NN): 0.1 µg/mL
- MIC (organism code OO): 0.02 µg/mL
- MIC (organism code PP): 0.02 µg/mL
- MIC (organism code QQ): 50 µg/mL
- MIC (organism code RR): 0.2 µg/mL
- MIC (organism code SS): 50 µg/mL
- MIC (organism code TT): > 100 µg/mL
- MIC (organism code UU): 0.39 µg/mL
- MIC (organism code VV): 0.05 µg/mL
- MIC (organism code WW): 4 µg/mL
- MIC (organism code XX): 0.03 µg/mL
- MIC (organism code YY): 0.03 µg/mL
- MIC (organism code ZZ): 128 µg/mL
- MIC (organism code ZZA): 0.25 µg/mL

SMILES: C=CCO[C@@]1(C)C[C@@H](C)C(=O)[C@H](C)[C@H]2OC(=O)O[C@]2(C)[C@@H](CC)OC(=O)[C@H](C)C(=O)[C@H](C)[C@H]1O[C@@H]1O[C@H](C)C[C@H](N(C)C)[C@H]1O [Example 71, Compound of Formula (IX): L is CO, T is O, R is —CH2CH═CH2]
- MIC [1]: > 100 µg/mL
- MIC [2]: 1.56 µg/mL
- MIC [3]: > 100 µg/mL
- MIC [4]: > 100 µg/mL
- MIC (Escherichia coli SS (code RR)): 3.1 µg/mL
- MIC [5]: 64 µg/mL
- MIC [6]: 0.78 µg/mL
- MIC [7]: 25 µg/mL
- MIC [8]: 0.39 µg/mL
- MIC [9]: > 100 µg/mL
- MIC [10]: 0.39 µg/mL
- MIC [11]: > 100 µg/mL
- MIC [12]: 0.78 µg/mL
- MIC [13]: 3.1 µg/mL
- MIC [14]: 1.56 µg/mL
- MIC [15]: 0.78 µg/mL
- MIC [16]: 3.1 µg/mL
- MIC [17]: 1 µg/mL
- MIC [18]: > 128 µg/mL
- MIC [19]: 0.25 µg/mL
- MIC [20]: 0.25 µg/mL
- MIC [21]: 0.2 µg/mL
- MIC [22]: 0.2 µg/mL
- MIC [23]: > 100 µg/mL
- MIC [24]: 0.39 µg/mL
- MIC [25]: 0.39 µg/mL

SMILES: CCC1OC(=O)C(C)C(=O)C(C)C(OC2OC(C)CC(N(C)C)C2O)C(C)(OCC=Cc2ccc3ccccc3n2)CC(C)C(=O)C(C)C2NC(=O)OC12C (centres unmarked) [Example 212, R is —CH2CH═CH-(2-quinolyl)]
- MIC (organism code AA): 0.39 µg/mL (≈ 0.509 µM)
- MIC (organism code BB): 0.39 µg/mL (≈ 0.509 µM)
- MIC (organism code CC): > 100 µg/mL
- MIC (organism code DD): 0.39 µg/mL (≈ 0.509 µM)
- MIC (organism code EE): 0.39 µg/mL (≈ 0.509 µM)
- MIC (organism code FF): 0.39 µg/mL (≈ 0.509 µM)
- MIC (organism code GG): > 100 µg/mL
- MIC (organism code HH): 0.39 µg/mL (≈ 0.509 µM)
- MIC (organism code II): 0.1 µg/mL (≈ 0.131 µM)
- MIC (organism code JJ): ≤ 0.005 µg/mL
- MIC (organism code KK): 0.1 µg/mL (≈ 0.131 µM)
- MIC (organism code LL): 0.05 µg/mL (≈ 0.0653 µM)
- MIC (organism code MM): 25 µg/mL (≈ 32.6 µM)
- MIC (organism code NN): 0.39 µg/mL (≈ 0.509 µM)
- MIC (organism code OO): 0.05 µg/mL (≈ 0.0653 µM)
- MIC (organism code PP): 0.39 µg/mL (≈ 0.509 µM)
- MIC (organism code QQ): > 100 µg/mL
- MIC (organism code RR): 0.39 µg/mL (≈ 0.509 µM)
- MIC (organism code SS): > 100 µg/mL
- MIC (organism code TT): > 100 µg/mL
- MIC (organism code UU): 0.78 µg/mL (≈ 1.02 µM)
- MIC (organism code VV): 0.2 µg/mL (≈ 0.261 µM)
- MIC (organism code WW): 8 µg/mL (≈ 10.4 µM)
- MIC (organism code XX): 0.125 µg/mL (≈ 0.163 µM)
- MIC (organism code YY): 0.25 µg/mL (≈ 0.326 µM)
- MIC (organism code ZZ): 128 µg/mL (≈ 167 µM)
- MIC (organism code ZZA): 1 µg/mL (≈ 1.31 µM)

SMILES: CC[C@H]1OC(=O)[C@H](C)C(=O)[C@H](C)[C@@H](O[C@@H]2O[C@H](C)C[C@H](N(C)C)[C@H]2O)[C@@](C)(OCCNCc2ccccc2)C[C@@H](C)C(=O)[C@H](C)[C@@H](O)[C@]1(C)O [Example 9, Compound of Formula (VIII): X is O, R is —CH2CH2NHCH2-Phenyl]
- MIC [1]: > 100 µg/mL
- MIC [2]: 0.78 µg/mL
- MIC [3]: 25 µg/mL
- MIC [4]: 25 µg/mL
- MIC (Escherichia coli SS (code RR)): 0.39 µg/mL
- MIC [5]: 16 µg/mL
- MIC [6]: 0.78 µg/mL
- MIC [26]: 0.2 µg/mL
- MIC [7]: 6.2 µg/mL
- MIC [8]: 0.2 µg/mL
- MIC [9]: > 100 µg/mL
- MIC [10]: 1.56 µg/mL
- MIC [11]: > 100 µg/mL
- MIC [12]: 3.1 µg/mL
- MIC [13]: 3.1 µg/mL
- MIC [14]: 6.2 µg/mL
- MIC [15]: 0.78 µg/mL
- MIC [16]: 3.1 µg/mL
- MIC [17]: 4 µg/mL
- MIC [18]: > 64 µg/mL
- MIC [19]: 0.25 µg/mL
- MIC [20]: 0.25 µg/mL
- MIC [21]: 0.39 µg/mL
- MIC [22]: 0.05 µg/mL
- MIC [23]: > 100 µg/mL
- MIC [24]: 0.39 µg/mL
- MIC [25]: 0.78 µg/mL

SMILES: CC[C@H]1OC(=O)[C@H](C)C(=O)[C@H](C)[C@@H](O[C@@H]2O[C@H](C)C[C@H](N(C)C)[C@H]2O)[C@@](C)(OCC(O)C#N)C[C@@H](C)C(=O)[C@H](C)[C@@H](O)[C@]1(C)O (some centres unmarked) [Example 175, Compound of Formula (VIII): X is O, R is CH2—CH(OH)—CN]
- MIC [1]: > 100 µg/mL
- MIC [2]: 0.02 µg/mL
- MIC [3]: > 100 µg/mL
- MIC [4]: > 100 µg/mL
- MIC (Escherichia coli SS (code RR)): 0.78 µg/mL
- MIC [5]: 64 µg/mL
- MIC [6]: 0.1 µg/mL
- MIC [26]: 0.05 µg/mL
- MIC [7]: 0.78 µg/mL
- MIC [8]: 0.39 µg/mL
- MIC [9]: 12.5 µg/mL
- MIC [10]: 0.39 µg/mL
- MIC [11]: 25 µg/mL
- MIC [12]: 0.2 µg/mL
- MIC [13]: 0.78 µg/mL
- MIC [14]: 0.78 µg/mL
- MIC [15]: 0.78 µg/mL
- MIC [16]: 0.78 µg/mL
- MIC [17]: 2 µg/mL
- MIC [18]: 8 µg/mL
- MIC [19]: 0.03 µg/mL
- MIC [20]: 0.03 µg/mL
- MIC [21]: 0.02 µg/mL
- MIC [22]: 0.02 µg/mL
- MIC [23]: 3.1 µg/mL
- MIC [24]: 0.01 µg/mL
- MIC [25]: 0.39 µg/mL
